Values after ≈ are worked out from the molar mass of the structure shown.
Assays:
[1] = system: multidrug-resistant (MDR) strains of Mycobacterium tuberculosis; assay: microbe, parasite or virus in culture; type: cell-based; conditions: for MIC: Mycobacterium tuberculosis, 192 h, read-out: Antitubercular activity against Mycobacterium tuberculosis MDR (MIC)
[2] = system: extensively drug resistant (XDR) strains of Mycobacterium tuberculosis; assay: microbe, parasite or virus in culture; type: cell-based; conditions: 192 h, read-out: Antitubercular activity against Mycobacterium tuberculosis XDR (MIC)

Row | Compound | MIC [1] | MIC [2] | Antitubercular activity against Mycobacterium tuberculosis MDR (MIC) ([1]; MDR-TB, drug resistance at least to isoniazid and rifampicin, REMA, 8 days at 37° C. then resazurin overnight)
1 | COC(=O)c1c(C(=O)OC)c2c(Br)cc3ccccc3n2c1C(=O)c1ccc(OC)cc1 [QUIN-KNV1, Dimethyl 4-bromo-1-(4-methoxybenzoyl)pyrrolo[1,2-a]quinoline-2,3-dicarboxylate] | 2 mg/L (≈ 4.03 µM) | 2 mg/L (≈ 4.03 µM) | 
2 | CCOC(=O)c1cc(C(=O)c2ccc(OC)cc2)n2c1c(Br)cc1ccccc12 [QUIN-KNV2, Ethyl 4-bromo-1-(4-methoxybenzoyl)pyrrolo[1,2-a]quinoline-3-carboxylate] | 4 mg/L (≈ 8.84 µM) | 4 mg/L (≈ 8.84 µM) | 
3 | COC(=O)c1c(C(=O)OC)c2c(Br)cc3ccccc3n2c1C(=O)c1ccc(Cl)cc1 [QUIN-KNV3, Dimethyl 4-bromo-1-(4-chlorobenzoyl)pyrrolo[1,2-a]quinoline-2,3-dicarboxylate] | 4 mg/L (≈ 7.99 µM) | 4 mg/L (≈ 7.99 µM) | 
4 | CCOC(=O)c1cc(C(=O)c2ccc(Cl)cc2)n2c1c(Br)cc1ccccc12 [QUIN-KNV4, Ethyl 4-bromo-1-(4-chlorobenzoyl)pyrrolo[1,2-a]quinoline-3-carboxylate] | 8 mg/L (≈ 17.5 µM) |  | 
5 | COC(=O)c1c(C(=O)OC)c2c(Br)cc3ccccc3n2c1C(=O)c1ccc(Br)cc1 [QUIN-KNV5, Dimethyl 4-bromo-1-(4-bromobenzoyl)pyrrolo[1,2-a]quinoline-2,3-dicarboxylate] | 1 mg/L (≈ 1.83 µM) | 2 mg/L (≈ 3.67 µM) | 
6 | CCOC(=O)c1cc(C(=O)c2ccc(Br)cc2)n2c1c(Br)cc1ccccc12 [QUIN-KNV6, Ethyl 4-bromo-1-(4-bromobenzoyl)pyrrolo[1,2-a]quinoline-3-carboxylate] | 4 mg/L (≈ 7.98 µM) | 4 mg/L (≈ 7.98 µM) | 
7 | COC(=O)c1c(C(=O)OC)c2c(Br)cc3ccccc3n2c1C(=O)c1ccc(F)cc1 [QUIN-KNV7, Dimethyl 4-bromo-1-(4-fluorobenzoyl)pyrrolo[1,2-a]quinoline-2,3-dicarboxylate] | 16 mg/L (≈ 33 µM) |  | 
8 | CCOC(=O)c1cc(C(=O)c2ccc(F)cc2)n2c1c(Br)cc1ccccc12 [QUIN-KNV8, Ethyl 4-bromo-1-(4-fluorobenzoyl)pyrrolo[1,2-a]quinoline-3-carboxylate] | 4 mg/L (≈ 9.09 µM) | 4 mg/L (≈ 9.09 µM) | 
9 | COC(=O)c1c(C(=O)OC)c2c(Br)cc3ccccc3n2c1C(=O)c1ccc(C#N)cc1 [QUIN-KNV9, Dimethyl 4-bromo-1-(4-cyanobenzoyl)pyrrolo[1,2-a]quinoline-2,3-dicarboxylate] | 8 mg/L (≈ 16.3 µM) | 16 mg/L (≈ 32.6 µM) | 
10 | CCOC(=O)c1cc(C(=O)c2ccc(C#N)cc2)n2c1c(Br)cc1ccccc12 [QUIN-KNV10, Ethyl 4-bromo-1-(4-cyanobenzoyl)pyrrolo[1,2-a]quinoline-3-carboxylate] | 16 mg/L (≈ 35.8 µM) |  | 
11 | COC(=O)c1c(C(=O)OC)c2c(Br)cc3ccccc3n2c1C(=O)c1ccccc1 [QUIN-KNV11, Dimethyl 1-benzoyl-4-bromopyrrolo[1,2-a]quinoline-2,3-dicarboxylate] | 16 mg/L (≈ 34.3 µM) |  | 
12 | Ethyl 4-bromo-1-(2-nitrobenzoyl)pyrrolo[1,2-a]quinoline-3-carboxylate [QUIN-KNV12] |  |  | 8 mg/L

Source: patent US11919900B1 (priority 2023, dated 2024)
